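Assay format: 96-well plates, 48-hour exposure. Here, GI50 denotes the concentration required for 50% inhibition of growth. TGI: total growth inhibition.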
Tests used:
Experiment in all cases: NCI tumour cell line growth inhibition, 48 h
HOP-62 NSCLC = tested on: HOP-62 NSCLC
RPMI-8226 leukemia = tested on: RPMI-8226 leukemia
MCF7 breast = tested on: MCF7 breast
SR leukemia = tested on: SR leukemia
SK-MEL-28 melanoma = tested on: SK-MEL-28 melanoma
K-562 leukemia = tested on: K-562 leukemia
A549 NSCLC = tested on: A549 NSCLC
MDA-MB-231 breast = tested on: MDA-MB-231 breast
SNB-75 CNS = tested on: SNB-75 CNS
SF-268 CNS = tested on: SF-268 CNS
NCI/ADR-RES ovarian = tested on: NCI/ADR-RES ovarian
IGROV1 ovarian = tested on: IGROV1 ovarian
UO-31 renal = tested on: UO-31 renal
CCRF-CEM leukemia = tested on: CCRF-CEM leukemia
786-0 renal = tested on: 786-0 renal
HCC-2998 colon = tested on: HCC-2998 colon
TK-10 renal = tested on: TK-10 renal
SN12C renal = tested on: SN12C renal
U251 CNS = tested on: U251 CNS

| SMILES | TGI (HOP-62 NSCLC) | TGI (RPMI-8226 leukemia) | TGI (MCF7 breast) | TGI (SR leukemia) | TGI (SK-MEL-28 melanoma) | TGI (K-562 leukemia) | TGI (A549 NSCLC) | TGI (MDA-MB-231 breast) | TGI (SNB-75 CNS) | TGI (SF-268 CNS) | TGI (NCI/ADR-RES ovarian) | TGI (IGROV1 ovarian) | TGI (UO-31 renal) | TGI (CCRF-CEM leukemia) | TGI (786-0 renal) | TGI (HCC-2998 colon) | TGI (TK-10 renal) | TGI (SN12C renal) | TGI (U251 CNS) | GI50 (U251 CNS) |
| --- | --- | --- | --- | --- | --- | --- | --- | --- | --- | --- | --- | --- | --- | --- | --- | --- | --- | --- | --- | --- |
| N#Cc1nc(COCCOCc2ccccc2)oc1N | > 100 µM | > 100 µM | > 100 µM | > 100 µM | > 100 µM | > 100 µM | > 100 µM | > 100 µM | > 100 µM | > 100 µM | > 100 µM | > 100 µM | > 100 µM | > 100 µM | > 100 µM | > 100 µM | > 100 µM | > 100 µM | > 100 µM |  |
| COC(=O)CCC(=O)NC1c2cccc3cccc(c23)Cn2c(=O)n(C)c(=O)n21 (stereo unspecified) | > 100 µM | > 100 µM | > 100 µM | > 100 µM | > 100 µM | > 100 µM | > 100 µM | > 100 µM | > 100 µM | > 100 µM | > 100 µM | > 100 µM | > 100 µM | > 100 µM | > 100 µM | > 100 µM | > 100 µM | > 100 µM | > 100 µM |  |
| COc1cc(C2c3cc4c(cc3[C@H](OCCN(C)C)[C@@H]3COC(=O)C23)OCO4)cc(OC)c1O (stereo partly specified) | 0.366 µM | > 100 µM | > 100 µM | 0.778 µM | 4.51 µM | 15.9 µM | 1.34 µM | 39.3 µM | 3.79 µM | 2.97 µM | 15.1 µM | 7.5 µM | 1.71 µM | 1.73 µM | 0.439 µM | 2.55 µM | 17.9 µM | 0.598 µM | 0.898 µM | 0.0409 µM |
| NC(N)=N/N=C/c1c(Cl)nc2sccn12 | 66.8 µM | 53.1 µM | 73.6 µM | 54 µM | > 100 µM | 87.4 µM | 93.8 µM | > 100 µM | > 100 µM | > 100 µM | > 100 µM | > 100 µM | > 100 µM | 73 µM | 32.7 µM | 34 µM | > 100 µM | > 100 µM | > 100 µM |  |
| CC[C@@H]1/C=C/C=C/C[C@H](C)[C@@H](O)[C@](C)(O)C(=O)[C@H](C)[C@@H](O)[C@H](C)C(=O)[C@H](C)[C@@H](O)[C@H](C)/C=C/C(=O)O[C@H]2[C@@H](C)[C@@H](CC1)O[C@]1(O[C@H](CC(C)O)[C@H](C)CC1=O)[C@@H]2C (stereo partly specified) | 8.41 µM | > 13.9 µM | 4.7 µM | 12.8 µM | > 19.6 µM | 14.5 µM | > 16.2 µM | 8.47 µM | > 25 µM | 7.93 µM | 14.8 µM | 16.4 µM | > 20.4 µM | > 16 µM | 12.1 µM | 8 µM | 17.9 µM | 8.72 µM | 11.9 µM |  |
| CCOC(=O)C(=C(SC)SC)c1nn2c(=O)cc(C)nc2s1 | > 100 µM | 41.3 µM | 35.5 µM | 61.3 µM | 31.3 µM | 44.1 µM | > 100 µM | 47.8 µM | 89.6 µM | 54.5 µM | 90.4 µM | 47.5 µM | 34 µM | 68.6 µM | 36.2 µM | 34.9 µM | 44.9 µM | > 100 µM | 58.1 µM |  |
| O=C(CNc1ccc(Cl)cc1)Nn1c(-c2ccccc2)nc2ccccc2c1=O | 19.9 µM | 45.2 µM | 8.06 µM | > 52.1 µM | 19.8 µM | 14.3 µM | 29.4 µM | 13.6 µM | 24.1 µM | 26.9 µM | 19 µM | 15.7 µM | 20.4 µM | 9.48 µM | 10.2 µM | 23.5 µM | 30.5 µM | 20.9 µM | 5.02 µM |  |
| C=C(C)[C@@H](C(=O)OC)N1C(=O)c2ccccc2C1=O | > 100 µM | > 100 µM | > 100 µM | > 100 µM | > 100 µM | > 100 µM | > 100 µM | > 100 µM | > 100 µM | > 100 µM | > 100 µM | > 100 µM | > 100 µM | > 100 µM | > 100 µM | > 100 µM | > 100 µM | > 100 µM | > 100 µM |  |
| Clc1cccc(Cl)c1C1SCC2=Nc3ccccc3CN21 (stereo unspecified) | 48.9 µM | > 100 µM | 52.7 µM | > 100 µM | 91.2 µM | > 100 µM | 56.5 µM | > 100 µM | > 100 µM | > 100 µM | 40 µM | 62.5 µM | 43.2 µM | > 100 µM | 32.4 µM | > 100 µM | > 100 µM | > 100 µM | > 100 µM |  |
| C=CCN1C(=O)/C(=C/c2ccccc2)NC1=S | > 100 µM | > 100 µM | > 100 µM | > 100 µM | > 100 µM | > 100 µM | > 100 µM | > 100 µM | > 100 µM | > 100 µM | > 100 µM | > 100 µM | > 100 µM | > 100 µM | > 100 µM | > 100 µM | > 100 µM | > 100 µM | > 100 µM |  |
| CC1CN=C(Nc2ccc(S(N)(=O)=O)cc2)S1 (stereo unspecified) | > 100 µM | > 100 µM | > 100 µM | > 100 µM | > 100 µM | > 100 µM | > 100 µM | > 100 µM | > 100 µM | > 100 µM | > 100 µM | > 100 µM | > 100 µM | > 100 µM | > 100 µM | > 100 µM | > 100 µM | > 100 µM | > 100 µM |  |
| Nc1nc(Cl)cc(NCC2(CO)COC2)n1 | > 100 µM | > 100 µM | > 100 µM | > 100 µM | > 100 µM | > 100 µM | > 100 µM | > 100 µM | > 100 µM | > 100 µM | > 100 µM | > 100 µM | > 100 µM | > 100 µM | > 100 µM | > 100 µM | > 100 µM | > 100 µM | > 100 µM |  |
| O=C1NNC(=O)C2C3c4ccccc4C(c4ccccc43)C12 (stereo unspecified) | > 100 µM | > 100 µM | > 100 µM | > 100 µM | > 100 µM | > 100 µM | > 100 µM | > 100 µM | > 100 µM | > 100 µM | > 100 µM | > 100 µM | > 100 µM | > 100 µM | > 100 µM | > 100 µM | > 100 µM | > 100 µM | > 100 µM |  |
| CC(=O)c1cccc2c1CC1(C2)Cc2ccc3c(c2C1=O)CCC3 (stereo unspecified) | > 100 µM | > 100 µM | 76.4 µM | 73.1 µM | > 100 µM | > 100 µM | > 100 µM | > 100 µM | > 100 µM | > 100 µM | 57.5 µM | > 100 µM | > 100 µM | > 100 µM | > 100 µM | 67.4 µM | 77.6 µM | > 100 µM | > 100 µM |  |
| COC1(OC)C2(Cl)CCC1(Cl)C(OC(C)=O)C2 (stereo unspecified) | > 100 µM | > 100 µM | > 100 µM | > 100 µM | > 100 µM | > 100 µM | > 100 µM | > 100 µM | > 100 µM | > 100 µM | > 100 µM | > 100 µM | > 100 µM | > 100 µM | > 100 µM | > 100 µM | > 100 µM | > 100 µM | > 100 µM |  |
